Experiments:
[1] = Photo-fading under near-infrared pulse laser irradiation; format: physicochemical; conditions: 4 irradiations
Procedure: With respect to each of Cy7-PMPC (58 k) represented by the formula (47), 700DX-PMPC (57 k) represented by the formula (48), 800CW-PMPC (57 k) represented by the formula (49) and 800RS-PMPC (57 k) represented by the formula (50) obtained in Examples 22, 23, 24 and 25, respectively, and ICG-PMPC (48 k) represented by formula (46) described in Example 12, 2.0 mL of a sample was prepared in which the concentration of each dye-bound PMPC was adjusted so that the absorbance at the maximum absorption wavelength was 0.15. A sample of single ICG as Comparative Example was also prepared. Herein, the irradiation wavelength of near-infrared pulse laser light by use of the PAT apparatus and the excitation wavelength in fluorescence spectrum measurement were set to be the maximum absorption wavelengths of each dye-bound PMPC and ICG. Herein, the excitation wavelengths and the fluorescence emission wavelengths of each dye-bound PMPC and ICG were summarized in FIG. 16. The amount of near-infrared pulse laser light was set to be 8 to 9 mJ at each wavelength, and irradiation at 120 points (detector position) per 20 times was defined as one irradiation and such irradiation was performed at most four times. […] The resultant sample was placed in a 100-μL cuvette, subjected to fluorescence spectrum measurement (FP-6300 manufactured by JASCO Corporation), and studied with respect to photo-fading. […]

[2] = background art; cited from earlier work

## CC1(C)C(/C=C/C=C/C=C/C=C2/N(CCCCS(=O)(=O)[O-])c3ccc4ccccc4c3C2(C)C)=[N+](CCCCS(=O)(=O)[O-])c2ccc3ccccc3c21.[Na+] [ICG, indocyanine green]
[1]
  Photo-fading: normalized fluorescent intensity remaining after laser irradiation: about 15%
[2]
  Half-life in blood: about several minutes

Source: US10398788B2, “Polymer and contrast agent for photoacoustic imaging including the polymer” (CANON KABUSHIKI KAISHA, priority 2014, dated 2019)
